We go through eleven compounds from patent US7642272B2, “Cannabinoid receptor ligands” (Schering Corporation, priority 2003, dated 2010).

T1 sequence (P34972 whole entry): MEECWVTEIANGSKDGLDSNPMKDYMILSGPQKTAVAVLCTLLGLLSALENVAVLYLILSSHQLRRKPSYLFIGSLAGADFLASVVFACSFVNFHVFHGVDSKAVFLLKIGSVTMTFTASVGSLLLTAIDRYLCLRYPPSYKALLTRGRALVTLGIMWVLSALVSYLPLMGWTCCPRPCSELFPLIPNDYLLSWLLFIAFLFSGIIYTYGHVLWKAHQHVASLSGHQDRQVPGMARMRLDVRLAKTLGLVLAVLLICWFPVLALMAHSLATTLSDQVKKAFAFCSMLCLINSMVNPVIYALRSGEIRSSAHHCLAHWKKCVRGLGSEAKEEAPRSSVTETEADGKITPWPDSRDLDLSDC

The first experiment concerns the target T1, recombinant human cannabinoid CB2 receptor (Homo sapiens, UniProt P34972).
T1 construct: purchased Receptor Biology RB-HCB2
Description: competition with [3H] CP-55,940 for binding to recombinant cannabinoid receptor membranes (CB2).
Conditions: not given
The method, then: Potential cannabinoid receptor ligands were screened for the ability to compete with [^3H] CP-55,940 for binding to recombinant cannabinoid receptors. Test compounds were serially diluted in Diluent Buffer (50 mM Tris pH 7.1, 1 mM EDTA, 3 mM MgCl2, 0.1% BSA, 10% DMSO, 0.36% methyl cellulose (Sigma M-6385)) from stocks prepared in 100% DMSO. Aliquots (10 μL) were transferred into 96-well microtiter plates. Membrane preparations of recombinant human cannabinoid CB2 receptor (Receptor Biology #RB-HCB2) or recombinant human cannabinoid CB1 receptor (Receptor Biology #RB-HCB1) were diluted to 0.3 mg/mL in Binding Buffer (50 mM Tris pH 7.2, 1 mM EDTA, 3 mM MgCl2, 0.1% BSA). Aliquots (50 μL) were added to each well of the microtiter plate. The binding reactions were initiated by addition of [^3H] CP-55,940 (New England Nuclear # NET 1051; specific activity=180 Ci/mmol) to each well of the microtiter plate. Each 100 μl reaction mixture contained 0.48 nM [^3H] CP-55,940, 15 μg membrane protein in binding buffer containing 1% DMSO and 0.036% methyl cellulose. Following incubation for 2 hours at room temperature, the reactions were filtered through 0.5% polyethylenimine-coated GF/C filter plates (UniFilter-96, Packard) with a TomTec Mark 3U Harvester (Hamden, CT). The filter plate was washed 5 times with binding buffer, rotated 180°, then re-washed 5 times with binding buffer. Bound radioactivity was quantitated following addition of 30 μl of Packard Microscint 20 scintillant in a Packard TopCount NXT microplate scintillation counter. Non-linear regression analysis of the resulting data was performed using Prism 2.0b (GraphPad, San Diego, Calif.).
The activities (potencies) for the compounds of the invention are determined by measuring their Ki values.
One may read the Ki as a measure of affinity in units of concentration, obtained from inhibition or displacement. Take `COc1ccc(S(=O)(=O)c2ccc(C(C)C)cc2)c(S(=O)(=O)c2ccccn2)c1` [AG]: the inhibition constant Ki is less than 0.02 µM.
In the case of `CC(C)c1ccc(S(=O)(=O)c2c(S(=O)(=O)c3ccccc3F)c3ccccc3n2C)cc1` [AO], the Ki is less than 0.02 µM.
Take `CC(C)c1ccc(Cc2ccc(OC(F)(F)F)cc2S(=O)(=O)c2ccccc2F)cc1` [C]: the Ki was less than 0.02 µM.
Regarding `CC(C)c1ccc(S(=O)(=O)c2ccc(OC(F)(F)F)cc2S(=O)(=O)c2ccccc2F)cc1` [F], the inhibitory constant (Ki) was less than 0.02 µM.

The same experiment, now with this note: 0.48 nM [3H] CP-55,940, 15 μg membrane protein, 2 hours at room temperature; read-out: CB2 Ki.
Regarding `COc1ccc(S(=O)(=O)c2ccc(C3CC3)cc2)c(S(=O)(=O)c2ccccc2F)c1` [AH], the Ki was less than 0.02 µM.
As to `CC(C)c1ccc(S(=O)(=O)c2ccc(C(C)C)cc2S(=O)(=O)c2ccccn2)cc1` [AJ], the Ki was less than 0.02 µM.
For the compound `CC(C)Oc1ccc(S(=O)(=O)c2ccc(C(C)C)cc2)c(S(=O)(=O)c2ccccc2F)c1` [AK], the inhibition constant (Ki) was less than 0.02 µM.
Regarding `CC(C)c1ccc(S(=O)(=O)c2c(S(=O)(=O)c3ccccn3)c3ccccc3n2C)cc1` [AQ], the Ki was less than 0.02 µM.
Same read-out and setting: the figure for `CC(C)c1ccc(S(=O)(=O)c2ccc(OC(F)(F)F)cc2S(=O)(=O)c2ccccn2)cc1` [G] is less than 0.02 µM.
In the case of `O=S(=O)(c1ccc(C2CC2)cc1)c1ccc(Cl)cc1S(=O)(=O)c1ccccc1F` [K], the Ki is less than 0.02 µM.
`COCCOc1ccc(S(=O)(=O)c2ccc(C(C)C)cc2)c(S(=O)(=O)c2ccccc2F)c1` [S]: the Ki is less than 0.02 µM.
